Measurements reported in patent publication US20240228504A1, “SUBSTITUTED TRICYCLIC AMIDES, ANALOGUES THEREOF, AND METHODS USING SAME” (Arbutus Biopharma Corporation, priority 2020, published 2024).
pEC50: −log10 of the molar value.

The compounds below were run on HBV rcDNA in HepDE19 cells (assay: HepDE19 assay with bDNA quantitation of HBV rcDNA). Details: HepDE19 assay, inhibition of rcDNA formation, bDNA quantitation; read-out: DE-19bDNA EC50.
Type: cell-based, hepatitis B virus
CN(C(=O)c1cc2cc(F)ccc2[nH]1)C1COCc2[nH]c(=O)c3cc(F)ccc3c21 (single isomer, unassigned) [Compound 29, 5-Fluoro-N-(8-fluoro-6-oxo-1,4,5,6-tetrahydro-2H-pyrano[3,4-c]isoquinolin-1-yl)-N-methyl-1H-indole-2-carboxamide] showed a pEC50 of 5.82.
CN(C(=O)c1cc2c(F)cccc2[nH]1)C1CNCc2[nH]c(=O)c3cc(F)c(F)cc3c21 (single isomer, unassigned) [Compound 106, N-(8,9-Difluoro-6-oxo-1,2,3,4,5,6-hexahydrobenzo[c][1,7]naphthyridin-1-yl)-4-fluoro-N-methyl-1H-indole-2-carboxamide] was tested, and the pEC50 was 7.00.
Work on CN(C(=O)c1cc2c(C(F)F)cccc2[nH]1)C1CNCc2[nH]c(=O)c3cc(F)c(F)cc3c21 (single isomer, unassigned) [Compound 207, N-(8,9-Difluoro-6-oxo-1,2,3,4,5,6-hexahydrobenzo[c][1,7]naphthyridin-1-yl)-4-(difluoromethyl)-N-methyl-1H-indole-2-carboxamide] yielded a pEC50 of 5.25.
In the case of CN(C(=O)c1cc2cc(F)ccn2c1)C1CNCc2[nH]c(=O)c3cc(F)c(F)cc3c21 (single isomer, unassigned) [Compound 162, N-(8,9-Difluoro-6-oxo-1,2,3,4,5,6-hexahydrobenzo[c][1,7]naphthyridin-1-yl)-7-fluoro-N-methylindolizine-2-carboxamide], the pEC50 was 4.86.
For CN(C(=O)c1cc2c(C(F)F)cccc2[nH]1)C1COCc2[nH]c(=O)c3cc(F)ccc3c21 (single isomer, unassigned) [Compound 181, 4-(Difluoromethyl)-N-(8-fluoro-6-oxo-1,4,5,6-tetrahydro-2H-pyrano[3,4-c]isoquinolin-1-yl)-N-methyl-1H-indole-2-carboxamide], the pEC50 was 5.26.
With CN(C(=O)c1cc2sccc2[nH]1)C1CNCc2[nH]c(=O)c3cc(F)c(F)cc3c21 (single isomer, unassigned) [Compound 421, N-(8,9-Difluoro-6-oxo-1,2,3,4,5,6-hexahydrobenzo[c][1,7]naphthyridin-1-yl)-N-methyl-4H-thieno[3,2-b]pyrrole-5-carboxamide] the pEC50 was 7.40.

Same assay, conditions: Hepatitis B virus, HepDE19, HepDE19 assay, inhibition of rcDNA formation, bDNA quantitation; read-out: DE-19bDNA EC50
For CN(C(=O)c1ccc(C(F)(F)F)c(F)c1)C1COCc2[nH]c(=O)c3ccccc3c21 (racemic) [Compound 132, 3-Fluoro-N-methyl-N-(6-oxo-1,4,5,6-tetrahydro-2H-pyrano[3,4-c]isoquinolin-1-yl)-4-(trifluoromethyl)benzamide], the pEC50 was 7.22.
Compound CN(C(=O)c1cccc(-c2cccc(F)c2)c1)[C@@H]1COCc2[nH]c(=O)c3cc(F)c(F)cc3c21 [Compound 290, (S)-N-(8,9-Difluoro-6-oxo-1,4,5,6-tetrahydro-2H-pyrano[3,4-c]isoquinolin-1-yl)-3′-fluoro-N-methyl-[1,1′-biphenyl]-3-carboxamide] has a pEC50 of 5.64.
With CN(C(=O)c1ccc(Br)cc1)[C@@H]1COCc2[nH]c(=O)c3cc(F)c(F)cc3c21 [Compound 131, (S)-4-Bromo-N-(8,9-difluoro-6-oxo-1,4,5,6-tetrahydro-2H-pyrano[3,4-c]isoquinolin-1-yl)-N-methylbenzamide] the pEC50 was 8.00.
Compound CN(C(=O)c1cc2cc(F)ncc2[nH]1)[C@@H]1COCc2[nH]c(=O)c3cc(F)c(F)cc3c21 [Compound 310, (S)-N-(8,9-Difluoro-6-oxo-1,4,5,6-tetrahydro-2H-pyrano[3,4-c]isoquinolin-1-yl)-5-fluoro-N-methyl-1H-pyrrolo[2,3-c]pyridine-2-carboxamide] has a pEC50 of 7.52.
CN(C(=O)c1ccc2[nH]ncc2c1)[C@@H]1COCc2[nH]c(=O)c3cc(F)c(F)cc3c21 [Compound 429, (S)-N-(8,9-Difluoro-6-oxo-1,4,5,6-tetrahydro-2H-pyrano[3,4-c]isoquinolin-1-yl)-N-methyl-1H-indazole-5-carboxamide] was tested, and the pEC50 was 6.01.
CCc1ccc(C(=O)N(C)[C@@H]2COCc3[nH]c(=O)c4cc(F)c(F)cc4c32)cc1F [Compound 147, (S)-N-(8,9-Difluoro-6-oxo-1,4,5,6-tetrahydro-2H-pyrano[3,4-c]isoquinolin-1-yl)-4-ethyl-3-fluoro-N-methylbenzamide] showed a pEC50 of 5.48.
